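In this assay, cells in 96-well plates receive the compound at five concentrations for 48 hours. Endpoints are linearly interpolated between the surrounding concentrations. GI50: concentration for 50% inhibition of growth.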 Activity calls are given as the source filed them. No stated cut-off is given here; in the data, active = GI50 up to about 1.1 µM and inactive = higher. Where a SMILES comes first, the peptide text is derived from it. The star is where a group is joined. Boc = CC(C)(C)OC(=O)*; Bn = c1ccc(C*)cc1

What all share (experiment): DTP human tumour cell line panel, 48 h
Assay [1] concerns HCT-116.
Assay [2] concerns HOP-62.
Assay [3] has as its system NCI-H23.
The subject of assay [4] is NCI-H522.
For assay [5], the system named is OVCAR-3.
Assay [6] relates to Malme-3M.
Assay [7] concerns TK-10.
For assay [8], the system named is OVCAR-4.
The subject of assay [9] is HOP-92.
The test system of assay [10] is T47D.
Assay [11] relates to SR.
Assay [12] relates to U-251.
Assay [13] has as its system HCT-15.
Assay [14] has as its system CCRF-CEM.
For assay [15], the system named is SF-268.
The subject of assay [16] is NCI/ADR-RES.
The test system of assay [17] is SK-MEL-5.
Assay [18] concerns SW-620.
Assay [19] has as its system SK-OV-3.

`COc1cc2cc(C(=O)N3CC(COS(C)(=O)=O)c4ccc(O)cc43)[nH]c2c(OC)c1OC` (stereo unspecified): the GI50 in [1], in assay [2], in assay [3], in assay [4], in assay [5] and in assay [6] was < 0.0001 µM (active) each time. Further, the GI50 is 0.000301 µM (active) in assay [7]; < 0.0001 µM (active) in assay [8]; < 0.0001 µM (active) in assay [9]; 0.000552 µM (active) in [10]; < 0.0001 µM (active) in assay [11]; < 0.0001 µM (active) in [12]. The concentration for 50% growth inhibition (GI50) in [13] is below 0.0001 µM; in assay [14], < 0.01 µM (active); in assay [15], < 0.0001 µM (active); in assay [16], < 0.0001 µM (active); in [17], < 0.0001 µM (active); in assay [18], < 0.0001 µM (active).

Take `COC(=O)c1oc([N+](=O)[O-])c(Cl)c1Cl`: the GI50 in [1] is 6.24 µM (inactive); in [2], 8.71 µM (inactive); in assay [3] it was 8.73 µM (inactive); in [4], 1.7 µM (inactive); in assay [5], 6.1 µM (inactive); in assay [6] it was 7.43 µM (inactive). Further, the GI50 in assay [7] is 7.36 µM (inactive); in assay [8] it was 9.31 µM (inactive); in assay [9], 20 µM (inactive); in assay [10], 4.76 µM (inactive); in assay [11], 2.08 µM (inactive); in assay [12], 8.11 µM (inactive). For the same molecule, the GI50 in assay [13] is 7.57 µM; in assay [14], 2.21 µM (inactive); in assay [15], 8.28 µM (inactive); in assay [19], 19 µM (inactive); in [16], 13.4 µM (inactive); in assay [17] it was 9.08 µM (inactive). Also, the GI50 in [18] was 4.07 µM (inactive).

`Nn1c(-c2ccccc2)n[nH]c1=O`: the GI50 in [1] was > 100 µM (inactive); in [2] it was > 100 µM (inactive); in assay [3], > 100 µM (inactive); in [4], > 100 µM (inactive); in assay [5] it was > 100 µM (inactive); in assay [6], 80.2 µM (inactive). The GI50 in assay [7], in assay [8], in assay [9], in assay [10], in assay [11] and in [12] was > 100 µM (inactive) each time. In addition, the GI50 is above 100 µM in [13]; > 100 µM (inactive) in [14]; > 100 µM (inactive) in assay [15]; > 100 µM (inactive) in [19]; > 100 µM (inactive) in assay [16]; > 100 µM (inactive) in assay [17]. Besides, the GI50 in assay [18] is > 100 µM (inactive).

In the case of `CC1CN(CCO)CC(C)O1` (stereo unspecified), the GI50 in assay [1], in assay [2], in assay [3], in [4], in assay [5] and in assay [6] was > 100 µM (inactive) in each case. Also, the GI50 in assay [7], in assay [8], in [9], in assay [10], in assay [11] and in assay [12] was > 100 µM (inactive) in each case. The GI50 in assay [13] is above 100 µM; in assay [14], > 100 µM (inactive); in assay [15], > 100 µM (inactive); in assay [19] it was > 100 µM (inactive); in assay [16] it was > 100 µM (inactive); in assay [17], > 100 µM (inactive). Moreover, in [18], the GI50 is > 100 µM (inactive).

In the case of `COC(=O)C(=O)C(C(=O)OC)C(=O)C(=O)Nc1c(Cl)cc([N+](=O)[O-])cc1Cl` (stereo unspecified), the GI50 was > 100 µM (inactive) in assay [1]; 37.1 µM (inactive) in assay [2]; > 100 µM (inactive) in [3]; 27 µM (inactive) in assay [4]; > 100 µM (inactive) in assay [5]; > 100 µM (inactive) in assay [6]. Besides, the GI50 is 62.4 µM (inactive) in assay [7]; 80.9 µM (inactive) in assay [8]; > 100 µM (inactive) in assay [9]; > 100 µM (inactive) in [10]; > 10 µM (inactive) in [11]; 68.7 µM (inactive) in assay [12]. The GI50 in [13] is 92.9 µM; in assay [14], > 10 µM (inactive); in assay [15], 40.1 µM (inactive); in [19], > 100 µM (inactive); in [16], 72.8 µM (inactive); in assay [17], > 100 µM (inactive). Also, the GI50 in assay [18] was > 100 µM (inactive).

Take `CCCCCc1c2nc(c(CCCCC)c3ccc([nH]3)c(CCCCC)c3nc(c(CCCCC)c4ccc1[nH]4)C=C3)C=C2`: the GI50 in assay [1], in assay [2], in assay [3], in assay [4], in assay [5] and in [6] was > 100 µM (inactive) in each case. The GI50 in [7], in assay [8], in assay [9], in assay [10], in assay [11] and in [12] was > 100 µM (inactive) in each case. Besides, the GI50 in assay [13] was above 100 µM; in assay [14] it was > 100 µM (inactive); in assay [15], > 100 µM (inactive); in assay [19], > 100 µM (inactive); in assay [16], > 100 µM (inactive); in assay [17] it was > 100 µM (inactive). Besides, in assay [18], the GI50 is > 100 µM (inactive).

Turning to `CCCc1nc2c(n1CC)C(=O)c1ccccc1C2=O`, the GI50 in assay [1] is 39.3 µM (inactive); in assay [2], > 100 µM (inactive); in assay [3], 39.4 µM (inactive); in assay [4], 24.3 µM (inactive); in assay [5] it was 32.5 µM (inactive); in assay [6], 22.2 µM (inactive). The GI50 in [7] is 66.1 µM (inactive); in assay [8], 32.1 µM (inactive); in [9], > 10 µM (inactive); in assay [10], 28.5 µM (inactive); in assay [11], 42.3 µM (inactive); in assay [12], 59.3 µM (inactive). The GI50 in [13] is 28.3 µM; in assay [14], 24.5 µM (inactive); in assay [15] it was 45.5 µM (inactive); in [19], 21.7 µM (inactive); in assay [16], 26.2 µM (inactive); in assay [17] it was 29.8 µM (inactive). Besides, the GI50 in assay [18] was 39.1 µM (inactive).

Consider `O=C(Nn1c(-c2ccccc2)nc2ccccc2c1=O)c1ccc(Cl)cc1`, for which the GI50 in [1] was > 100 µM (inactive); in [2], > 100 µM (inactive); in assay [3], 95.1 µM (inactive); in [4], 50.6 µM (inactive); in assay [5], 91.6 µM (inactive); in [6] it was > 100 µM (inactive). In addition, the GI50 in [7] was 86.3 µM (inactive); in assay [8] it was 56.5 µM (inactive); in assay [9], 75.3 µM (inactive); in assay [10] it was 85.5 µM (inactive); in assay [11], 85.5 µM (inactive); in assay [12], 84.3 µM (inactive). Also, the GI50 in assay [13] was above 100 µM; in assay [14], > 100 µM (inactive); in assay [15], > 100 µM (inactive); in [19], > 100 µM (inactive); in assay [16] it was > 100 µM (inactive); in assay [17], 23.4 µM (inactive). Moreover, the GI50 in [18] is > 100 µM (inactive).

`CC(C)(Cl)C(Br)CCC(Br)(CCl)C(Cl)CBr` (stereo unspecified): the GI50 in assay [2], in assay [3], in [4], in assay [5], in assay [6] and in [7] was > 10 µM (inactive) in each case. In addition, the GI50 is > 10 µM (inactive) in assay [8]; > 10 µM (inactive) in assay [9]; > 10 µM (inactive) in [10]; > 10 µM (inactive) in assay [11]; > 10 µM (inactive) in assay [12]; above 10 µM in assay [13]. Also, the GI50 in assay [14], in assay [19], in assay [16], in assay [17] and in assay [18] was > 10 µM (inactive) each time.

Turning to `O=C(/C=C/C=C/c1ccccc1)c1ccccc1`, the GI50 was 17.6 µM (inactive) in assay [1]; 4.66 µM (inactive) in assay [4]; 19.2 µM (inactive) in assay [5]; 10 µM (inactive) in assay [6]; 19.9 µM (inactive) in assay [7]; 17.7 µM (inactive) in assay [8]. Besides, the GI50 in [9] was 18.4 µM (inactive); in assay [10], 18.4 µM (inactive); in assay [11] it was 11.2 µM (inactive); in assay [12], 14 µM (inactive); in [13] it was 12.2 µM; in assay [15], 19.3 µM (inactive). The GI50 was 22.2 µM (inactive) in assay [19], 13.8 µM (inactive) in [16], 16.3 µM (inactive) in assay [17] and 16.7 µM (inactive) in assay [18].

Consider `COC(=O)C(CC(C)C)NC(=O)CNC(=O)C(Cc1ccc(OCc2ccccc2)cc1)NC(=O)C(COCc1ccccc1)NC(=O)OC(C)(C)C` (stereo unspecified) (Boc-S(Bn)Y(Bn)GL-OMe; configuration not given here), for which the GI50 in assay [1] was > 100 µM (inactive); in assay [2], > 100 µM (inactive); in assay [3] it was > 100 µM (inactive); in [4], 72.8 µM (inactive); in assay [5], > 100 µM (inactive); in [6], > 100 µM (inactive). In addition, the GI50 in assay [7], in [8], in [9], in assay [10], in assay [11] and in assay [12] was > 100 µM (inactive) throughout. Also, the GI50 in assay [15], in [19], in assay [16], in [17] and in assay [18] was > 100 µM (inactive) each time.
